Laboratory results taken from patent EP3524067B1, “SPRAY-DRIED MIXTURE OF HUMAN MILK OLIGOSACCHARIDES” (Chr. Hansen HMO GmbH, priority 2018, dated 2019).

Legend:
[1] = Differential scanning calorimetry (DSC) of spray-dried human milk oligosaccharides; type: physicochemical; conditions: spray-dried powder; for endothermal event, normalized energy / endothermal event, peak temperature: DSC heating scan (first heating scan where stated); for Tg, 1st heating scan / Tg, 2nd heating scan: glass transition temperature; for Tg, 1st heating scan: midpoint of endothermic shift, reheated to 100 °C at 10 K/min; for Tg, 2nd heating scan: second heating cycle, reheated to 150 °C
Excerpt: Using differential scanning calorimetry (DSC) on a Mettler Toledo 821e (Mettler Toledo, Giessen, Germany) thermal events of spray-dried human milk oligosaccharides, namely 3-fucosyllactose, 6'-sialyllactose, 3'-sialyllactose, lacto-N-tetraose, and spray-dried mixtures of human milk oligosaccharides, a mixture (HMO-Mix I) of 2'-fucosyllactose/lacto-N-tetraose, and a mixture (HMO Mix II) of 2'-fucosyllactose, 3-fucosyllactose, lacto-N-tetraose, 6'-sialyllactose, 3'-sialyllactose, respectively, were determined.
A Mettler Toledo 821e (Mettler Toledo, Giessen, Germany) was used to determine thermal events of the spray-dried products (glass transition temperature (Tg), further exo- and endothermic events).
Approximately 25 mg of the spray-dried human milk oligosaccharides were analyzed in crimped Al-crucibles (Mettler Toledo, Giessen, Germany). The samples were cooled to 0 °C with 10 K/min and reheated to 100 °C with a scanning rate of 10 K/min. After cooling down the samples to 0 °C in a second heating cycle, the samples were reheated to 150 °C. The midpoint of the endothermic shift of the baseline during the heating scan was taken as glass transition temperature (Tg). Exothermic and endothermic peaks are reported by means of the peak temperature and the normalized energy of the event.

[2] = Powder particle size by laser diffraction; type: physicochemical; set-up: Size, Mean: unit not given here; conditions: dispersed in isooctane; mean ± standard deviation of 3 measurements
Method: The powder particle size was assessed by laser diffraction. The system detects scattered and diffracted light by an array of concentrically arranged sensor elements. The software-algorithm is then approximating the particle counts by calculating the z-values of the light intensity values, which arrive at the different sensor elements. The analysis was executed using a SALD-7500 Aggregate Sizer (Shimadzu Corporation, Kyoto, Japan) quantitative laser diffraction system (qLD).
A small amount (spatula tip) of each sample was dispersed in 2 ml isooctane and homogenized by ultrasonication for five minutes. The dispersion was transferred into a batch cell filled with isooctane and analyzed in manual mode.
Data acquisition settings were as follows: Signal Averaging Count per Measurement: 128, Signal Accumulation Count: 3, and Interval: 2 seconds.
Prior to measurement, the system was blanked with isooctane. Each sample dispersion was measured 3 times and the mean values and the standard deviation are reported. Data was evaluated using software WING SALD II version V3.1. Since the refractive index of the sample was unknown, the refractive index of sugar (disaccharide) particles (1.530) was used for determination of size distribution profiles. Size values for mean and median diameter are reported.

| SMILES | endothermal event, normalized energy [1] [J/g] | endothermal event, peak temperature [1] | endothermal relaxation peak after Tg ([1]; first heating scan, result in words) | Tg, 1st heating scan [1] | Tg, 2nd heating scan [1] | Size, Median [2] [µm] | Tg, 2nd heating scan ([1]; listed as lacto-N-tetraose) | Size, Mean [2] | endothermal events ([1]; result in words) |
| --- | --- | --- | --- | --- | --- | --- | --- | --- | --- |
| CC(=O)N[C@H]1[C@H]([C@H](O)[C@H](O)CO)O[C@@](OC[C@H]2O[C@@H](O[C@H]3[C@H](O)[C@@H](O)[C@H](O)O[C@@H]3CO)[C@H](O)[C@@H](O)[C@H]2O)(C(=O)O)C[C@@H]1O [6'-sialyllactose] | -0.22 | 77 °C | detected | 47,6 °C | 49,6 °C | 141 |  |  |  |
| CC(=O)N[C@H]1[C@H](O[C@H]2[C@@H](O)[C@@H](CO)O[C@@H](O[C@H]3[C@H](O)[C@@H](O)C(O)O[C@@H]3CO)[C@@H]2O)O[C@H](CO)[C@@H](O)[C@@H]1O[C@@H]1O[C@H](CO)[C@H](O)[C@H](O)[C@H]1O (some centres unmarked) [Lacto-N-tetraose, lacto-N-tetraose] | -6.04 | about 89 °C |  | 49,9 °C | 79,4 °C | 141 | about 79 °C | 117.3 ± 0.7 |  |
| CC(=O)N[C@H]1[C@H]([C@H](O)[C@H](O)CO)O[C@@](O[C@H]2[C@@H](O)[C@@H](CO)O[C@@H](O[C@H]3[C@H](O)[C@@H](O)C(O)O[C@@H]3CO)[C@@H]2O)(C(=O)O)C[C@@H]1O (some centres unmarked) [3'-sialyllactose] |  |  |  | 48,8 °C | 54,3 °C | 122 ± 16.7 |  |  | No endothermal events were detected |
